# Test results reported in patent US9089576B2, “Medicament comprising a peptide extract of avocado, which is intended for the treatment and prevention of illnesses that are linked to an immune system deficiency or oxidative stress or skin ageing or dry skin” (LABORATOIRES EXPANSCIENCE, priority 2004, dated 2015).
# Several values for one entry are separate records, joined by “and”; a condition that tells them apart may be missing. Equal values may be shown once. Read-outs that look alike come from different tables or passages of the source. Marks after values point to notes of the source that are not given here.
# Key:
# hBD-2 = experiment: Induction of hBD-2 in normal human keratinocytes (ELISA); type: cell-based; details: IL-1β 100 ng/ml, 24 hours
# Method: Normal human keratinocytes are seeded in 96 well plates (about 20,000 cells/well), in the presence of a specific medium which is enriched in calcium (final concentration 1.3 mM), as formerly described in the publication “Human β-Defensin-2 production in Keratinocytes is regulated by Interleukin-1, Bacteria, and the State of Differentiation”, Alice Y. Liu et al., The Society for Investigative Dermatology, vol. 118, No 2, February 2002, pages 275-281.
# After 24 hours incubation, the induction of hBD-2 is assessed with an ELISA technique using a specific antibody (goat polyclonal to human BD2; Abcam; ab9871).
# Collagen I = experiment: Gene expression of Collagen I in fibroblasts (real-time RT-PCR); type: cell-based, human; details: 24 hours
# Method: (§1) The cells were then incubated at 37° C., 5% CO2 for 24 hours for the collagen I and elastin study or 48 hours for the LOX and LOXL study.
# Elastin = experiment: Gene expression of Elastin in fibroblasts (real-time RT-PCR); type: cell-based, human; details: 24 hours
# Method: as §1
# MMP1 = experiment: Gene expression of MMP1 in PMA-stimulated fibroblasts (real-time RT-PCR); type: cell-based, human; details: 1 mg/ml TGF b1 pre-treatment 16 hours, then 10 nM PMA 2 hours
# Method: After 16 hours of incubation, the fibroblasts were stimulated for 2 hours with 10 nM PMA (Phorbol Myristate Acetate) [Sigma] in RPMI medium without FCS.
# For the study of the expression of MMP1, the inhibition percentage was calculated as follows: […]
# oxidised proteins = experiment: Oxidised proteins content in replication-aged fibroblast model (INCell Analyzer analysis); type: cell-based, human; details: P16 fibroblasts; 150 μM BHA; 72 hours
# Method: The study was conducted on normal human dermal fibroblasts at passage 8 (P8, control conditions) and brought to senescence using two separate methods: • accelerated ageing by means of successive replications: fibroblasts at passage 16 (P16), • accelerated ageing by means of H2O2.
# The fibroblasts were cultured in DMEM medium [Invitrogen] supplemented with 2 mM L-glutamine [Invitrogen] and 10% Fetal Calf Serum [FCS, Invitrogen].
# After incubation, the cells were rinsed and fixed with methanol. The fluorescein-5-thiosemicarbazide probe (20 μM) [Invitrogen] was added for 30 minutes at ambient temperature and, in parallel, the cell nuclei were stained with Hoechst [Sigma]. The image acquisition was performed using the INCell Analyzer™ 1000 unit [GE Healthcare], with the ×20 lens.
# [1] = system: Jurkat cell line (human lymphoid cells); experiment: Anti-radical activity: intracellular lipid peroxides after H2O2 (C11-fluorine probe, flow cytometry); type: cell-based; details: 100 μM BHA; 10 μM H2O2, 30 minutes
# Method: The relative lipid peroxide content inside the cells was measured in the basal state and following hydrogen peroxide treatment (H2O2, radical species production stimulation).
# This measurement was made using a specific fluorescent probe selected and quantified by means of flow cytometry. This technique offers the advantage of very high specificity by measuring the fluorescence of individual cells, on a large number of cells (10,000 cells analysed per sample).
# The cells were prepared in phenol red-free DMEM medium [Merck] with 1.87 mg/ml sodium bicarbonate [Invitrogen] according to the following conditions: • cells treated with H2O2 with the C11-fluorine probe (to quantify lipid peroxides); • cells not treated with H2O2 with C11-fluorine probe.
# The probe was incorporated in the cells and the cells were then washed and incubated in the presence or not (standard) of 0.05%, 0.1%, 0.2% and 1% DM avocado peptides or 100 μM BHA (Butylated hydroxyanisole) [Sigma] […]
# In the presence of hydrogen peroxide, the C11-fluorine probe integrated in the membranes is oxidised and its fluorescence decreases. Therefore, a decrease in the fluorescence signal conveys an increase in the membrane lipid peroxide content (and conversely).
# The between-group comparisons were conducted using the Student's test and the protection percentage (P) was calculated as follows:
# [2] = system: SPRL6A (epidermal differentiation complex protein like protein); experiment: DNA array gene expression, Skinethic reconstructed epidermises: SPRL6A; type: cell-based; details: 1 μM retinoic acid
# hyaluronic acid = experiment: Hyaluronic acid synthesis/release by keratinocytes (ELISA); type: cell-based, human; details: 0.1 μM retinoic acid, 72 hours
# Method: (§2) Normal human epidermal keratinocytes (NHEK) were pre-cultured for 24 hours at 37° C., 5% CO2 in calcium-depleted (0.09 mM) SFM medium [Invitrogen] supplemented with 0.25 ng/ml EGF [Invitrogen], 25 μg/ml pituitary extract [Invitrogen] and 25 μg/ml gentamycin [Sigma].
# (§3) Two identical runs were prepared to assay, on one hand, hyaluronic acid release/production and, on the other, […] incorporation in the GAG fraction. The group corresponding to the GAG assay was supplemented with ^35S-sulphate [Amersham] after 48 hours of culture (labelling for the last 24 hours).
# In the group corresponding to the hyaluronic acid assay, at the end of treatment, the culture supernatants were sampled and the hyaluronic acid assayed using a specific modified ELISA test [Biogenic].
# (§4) The between-group comparisons were conducted by means of an analysis of variance using the Dunnett multiple comparison test.
# NICE-1 protein = experiment: DNA array gene expression, Skinethic reconstructed epidermises: NICE-1; type: cell-based; details: 1 μM retinoic acid
# S100 A7 = experiment: DNA array gene expression, Skinethic reconstructed epidermises: S100 A7; type: cell-based; details: 1 μM retinoic acid
# S100 A8 = experiment: DNA array gene expression, Skinethic reconstructed epidermises: S100 A8; type: cell-based; details: 1 μM retinoic acid
# [3] = system: Lysyl oxidase like 2 (LOXL2); experiment: DNA array gene expression, Skinethic reconstructed epidermises: LOXL2; type: cell-based; details: 1 μM retinoic acid
# [4] = system: Glycosaminoglycan (GAG) synthesis; experiment: GAG synthesis by keratinocytes (35S-sulphate incorporation); type: cell-based, human; details: 72 hours
# Method: as §2, §3
# At the end of the treatment, in the group corresponding to the GAG assay, the incorporated radioactivity was counted and thus the variation in GAG synthesis with respect to the analysed control.
# as §4
# [5] = system: Normal human epidermal keratinocytes (NHEK); experiment: NHEK proliferation (neutral red incorporation); type: cell-based; details: 1 μM retinoic acid; 48 hours
# Method: (§5) The cell proliferation was evaluated using a neutral red incorporation tests. This test is based on the ability of living cells to incorporate and fix neutral red, a supravital staining agent. Therefore, the staining activity intensity (optical density measurement of cell lysates) reflects the quantity of living cells.
# (§6) Normal human epidermal keratinocytes (NHEK), supplied by Cambrex, were cultured in KGM2 culture medium [Cambrex]. Normal human dermal fibroblasts (NHDF), supplied by Cambrex, were cultured in RPMI 1640 medium with GlutaMAX I [Invitrogen] supplemented with 1% or 10% fetal calf serum [FCS, Invitrogen].
# (§7) The cells were inoculated in 96-well plates in KGM2 medium for the NHEK and in RPMI medium with 1% FCS for the NHDF.
# (§8) (positive reference) in KGM2 medium for the NHEK or in RPMI medium with 1% FCS for the NHDF.
# (§9) At the end of treatment, the quantity of cells per well was evaluated by means of a neutral red incorporation test:
# (§10) After 3 hours in contact with neutral red, the cells were rinsed and lysed and the optical density proportional to the quantity of living cells was read at 540 nm against the blank (well with no cells).
# [6] = system: Normal human dermal fibroblasts (NHDF); experiment: NHDF proliferation (neutral red incorporation); type: cell-based; details: 1 μM retinoic acid; 48 hours; RPMI 1% FCS
# Method: as §5, §6, §7, §8
# An additional condition was conducted for the NHDF: treatment with complete medium (RPMI with 10% FCS: optimal conditions for NHDF proliferation).
# as §9, §10
# Elafin = experiment: DNA array gene expression, Skinethic reconstructed epidermises: Elafin; type: cell-based; details: 1 μM retinoic acid
# Desmosglein 1 = experiment: DNA array gene expression, Skinethic reconstructed epidermises: Desmosglein 1; type: cell-based; details: 1 μM retinoic acid
# S100 A9 = experiment: DNA array gene expression, Skinethic reconstructed epidermises: S100 A9; type: cell-based; details: 1 μM retinoic acid
# Thioredoxin = details: 1 μM retinoic acid
# Method: The gene expression analysis conducted using standard simplified DNA arrays. These mini-chips were produced on a Nylon substrate, spotting specific cDNA of the markers of interest.
# The analysis was conducted using proprietary optimised miniaturised technology, based on the use of messenger RNA and ^33P labelling:
# At the end of each culture time, the epidermises were rinsed with a PBS solution. The total RNA in the epidermises was then extracted and purified using Tri-Reagent [Sigma] according to a standardised protocol. The quantity and quality of the RNA were then evaluated using an Agilent 2001 bioanalyser.
# The mRNA from each culture was then reverse transcribed using oligodT and a deoxyribonucleotide triphosphate labelled with ^33P. Multiple cDNA ‘target’ labelled sequences were produced for each culture. These targets were then hybridised, under optimised conditions, with the excess ‘probe’ cDNA fixed on the membranes. After washing, the relative quantity of labelled target was detected by means of direct counting on PhosphorImager.
# The membrane analysis was conducted using ImageQuant TL software [Image Analysis, Amersham Biosciences].
# Heme oxygenase 1 = experiment: DNA array gene expression, Skinethic reconstructed epidermises: Heme oxygenase 1; type: cell-based; details: 1 μM retinoic acid
# [7] = system: Rat peritoneal mast cells; experiment: Tryptase release by mast cells stimulated with calcium ionophore A23187; type: cell-based; details: Ca ionophore + 50 μM Quercetin
# Method: (reference tryptase release inhibitory molecule).
# The cells were then stimulated for 15 minutes by 0.5 μM calcium ionophore A23187 [Millipore] to induce the release of tryptase.
# The reaction was stopped by means of centrifugation at 4° C. The tryptase was assayed in the pellets and in the supernatants by means of a commercial kit [Millipore] based on the spectrophotometric detection of the chromophore p-nitroaniline (pNA) after cleavage of the substrate tosyl-gly-pro-lys-pNA by tryptase.
molecule,measurement,setting,value
"IL-1β: interleukin-1β, positive induction checking for hBD-2","hBD-2 (OD), Average",hBD-2,0.106 OD
same,hBD-2 (OD),hBD-2; single replicates,0.103 OD and 0.11 OD and 0.105 OD
"TGF b1: TGFβ1 [R&D Systems], positive control / reference","Gene expression of Collagen I, Relative quantity standardised with HPRT",Collagen I; 5 mg/ml TGF b1,1.74*
same,increase in gene expression of type I collagen,Collagen I; TGFβ1 positive control,74%
same,"Gene expression of Elastin, Relative quantity standardised with HPRT",Elastin; 5 mg/ml TGF b1,1.59
same,increase in gene expression of elastin,Elastin; TGFβ1 positive control,59%
same,"Gene expression of MMP1, Inhibition (% vs stimulated cells)",MMP1,−66 $$ %
same,"Gene expression of MMP1, Relative quantity standardised with YWHA2",MMP1,0.61
same,"Gene expression of MMP1, Inhibition (% vs stimulated cells)",MMP1; listed as TGFβ1,−66%
"COc1ccc(O)c(C(C)(C)C)c1 [BHA, Butylated hydroxyanisole]",Oxidised proteins (cytoplasmic fluorescence intensity/number of cells),oxidised proteins,105 314*
same,"Oxidised proteins, % vs “senescent cells” (P16)",oxidised proteins,−57%
same,Protection %,[1],50%
same,"Relative intracellular quantity of lipid peroxides, % of “oxidised cell” standard",[1],89** %
CC1=C(/C=C/C(C)=C/C=C/C(C)=C/C(=O)O)C(C)(C)CCC1 [retinoic acid],% variation with respect to reference: SPRL6A,[2]; 6 hours,−41%
same,% variation with respect to reference: SPRL6A,[2]; 24 hours,+202%
same,"Hyaluronic acid synthesis/release, % vs control cells",hyaluronic acid,+146%
same,"Hyaluronic acid synthesis/release, HA",hyaluronic acid; culture supernatant,11500 ± 457 ng/mL
same,% variation with respect to reference: NICE-1 protein,NICE-1 protein; 6 hours,−3%
same,% variation with respect to reference: NICE-1 protein,NICE-1 protein; 24 hours,+217%
same,% variation with respect to reference: S100 A7,S100 A7; 6 hours,+118%
same,% variation with respect to reference: S100 A7,S100 A7; 24 hours,+3240%
same,% variation with respect to reference: S100 A8,S100 A8; 6 hours,+34%
same,% variation with respect to reference: S100 A8,S100 A8; 24 hours,+1347%
same,% variation with respect to reference: Lysyl oxidase like 2 (LOXL2),[3]; 6 hours,−16%
same,% variation with respect to reference: Lysyl oxidase like 2 (LOXL2),[3]; 24 hours,−16%
same,"GAG synthesis, 35-5 sulphate incorporation (cpm)",[4]; 0.1 μM retinoic acid,13217 ± 421 cpm
same,"NHEK proliferation, % vs control cells",[5],+36%
same,"NHEK proliferation, Neutral Red (OD 540)",[5],0.6981 ± 0.1627 OD 540
same,"NHDF proliferation, % vs control cells",[6],+20%
same,"NHDF proliferation, Neutral Red (OD 540)",[6],0.1923 ± 0.00765 OD 540
same,% variation with respect to reference: Elafin,Elafin; 6 hours,+13%
same,% variation with respect to reference: Elafin,Elafin; 24 hours,−22%
same,% variation with respect to reference: Desmosglein 1,Desmosglein 1; 6 hours,−40%
same,% variation with respect to reference: Desmosglein 1,Desmosglein 1; 24 hours,−95%
same,% variation with respect to reference: S100 A9,S100 A9; 6 hours,+83%
same,% variation with respect to reference: S100 A9,S100 A9; 24 hours,+552%
same,% variation with respect to reference: Thioredoxin,Thioredoxin; 6 hours,−26%
same,% variation with respect to reference: Thioredoxin,Thioredoxin; 24 hours,+126%
same,% variation with respect to reference: Heme oxygenase 1,Heme oxygenase 1; 6 hours,−17%
same,% variation with respect to reference: Heme oxygenase 1,Heme oxygenase 1; 24 hours,+108%
O=c1c(O)c(-c2ccc(O)c(O)c2)oc2cc(O)cc(O)c12 [Quercetin],Tryptase,[7],44 ± 2 mg/mL
same,"tryptase release, Inhibition (% vs stimulated cells)",[7],−47%
"[Ca+2] [Calcium, calcium]","GAG synthesis, 35-5 sulphate incorporation (cpm)",[4]; 1.5 mM calcium,17753 ± 876 cpm
same,"GAG synthesis, % vs control cells",[4]; 1.5 mM calcium,+59%
